From US20260364080A1, “PYRAZOLO-PYRIMIDINONE COMPOUNDS FOR USE IN METHODS OF INHIBITING WEE1 A KINASE” (Acrivon Therapeutics, Inc., priority 2023, published 2026)

Legend:
[1] = molecular target: T1, Wee1A kinase (CDK1 Tyr15 phosphorylation in ACHN renal cell carcinoma cells) (Homo sapiens, UniProt P30291); experiment: High-content imaging of pCdk1 Y15, Wee1A kinase target engagement in ACHN cells; assay type: cell-based; conditions: 4 h treatment, nuclear positivity for pCdk1 Y15 vs DMSO control, read-out: CDK1 Tyr15 Phosphorylation EC50
T1 construct: pCDK1 Tyr15 immunofluorescence read-out
Outline: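 EC50 values come from the per-well fraction of cells with nuclear pCdk1 Y15 staining, normalised to DMSO control, by automated immunofluorescence imaging. Cells were ACHN renal carcinoma, treated 4 h with compound at 7–5,000 nM or 0.3–200 nM.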

A427 cells = experiment: Cell Titer Glo viability assay, A427 cells; assay type: cell-based; conditions: Homo sapiens, A-427, 144 h, absolute EC50
Experimental: (§1) Each of an ACHN renal cell carcinoma cell line (ATCC) and a DAOY medulloblastoma cell line, and an A427 lung cancer line were cultured in Minimum Essential Medium Eagle supplemented with 10% fetal calf serum (Sigma), 1% Penicillin-Streptomycin and 10 mM HEPES buffer (HyClone). Cell cultures were kept in a humidified incubator at 37 °C and 5% CO2. Cells were routinely tested for Mycoplasma contamination.
(§2) ACHN cells, DAOY cells, or A427 cells were seeded at a density of 400, 250, or 500 cells per well respectively, in tissue culture treated 384 well plates (Corning Costar). After overnight incubation, cells were treated with drugs at concentrations ranging from 17 to 10 000 nM. Viability compared to untreated control was assessed at 144 h using Cell Titer Glo assay 2.0 (Promega). […] “NT” means the compounds was not tested in the indicated cells.

ACHN cells = experiment: Cell Titer Glo viability assay, ACHN cells; assay type: cell-based; conditions: Homo sapiens, 144 h, absolute EC50
Outline: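 Cells grown in MEM with 10% FCS were seeded at 500 (A427), 400 (ACHN) or 250 (DAOY) per well and treated the next day with compound at 17 to 10 000 nM. Viability relative to untreated control was read at 144 h by CellTiter-Glo 2.0.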

[2] = molecular target: T2, Myt1 kinase (recombinant PMYT-1) (Homo sapiens, UniProt Q99640); experiment: Myt1 kinase binding assay (LanthaScreen Eu Kinase Binding Assay); conditions: 3 nM tracer 178, 2.5 nM PMYT-1, 1 nM Eu-labeled antibody; read-out: Myt1 kinase Binding IC50
T2 construct: full length PMYT-1 was expressed by baculovirus in insect cells; purchased Invitrogen A30984; host or cells: insect cells (baculovirus)
T2 sequence (Q99640 1-499): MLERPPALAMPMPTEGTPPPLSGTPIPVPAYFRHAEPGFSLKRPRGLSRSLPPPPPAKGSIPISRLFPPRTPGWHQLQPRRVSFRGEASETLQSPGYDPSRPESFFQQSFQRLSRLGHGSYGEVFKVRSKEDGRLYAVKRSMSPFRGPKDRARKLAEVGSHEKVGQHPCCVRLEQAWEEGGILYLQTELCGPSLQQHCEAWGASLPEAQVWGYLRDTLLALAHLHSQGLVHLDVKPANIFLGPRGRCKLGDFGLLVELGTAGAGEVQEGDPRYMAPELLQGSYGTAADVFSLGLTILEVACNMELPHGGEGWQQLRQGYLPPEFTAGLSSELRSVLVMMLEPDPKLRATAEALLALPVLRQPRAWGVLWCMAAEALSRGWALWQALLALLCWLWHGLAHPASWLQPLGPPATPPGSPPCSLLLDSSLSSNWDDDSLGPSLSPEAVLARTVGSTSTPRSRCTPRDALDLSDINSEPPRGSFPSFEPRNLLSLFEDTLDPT
Outline: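 Compound binding to Myt1 kinase was assessed using the LanthaScreen Eu Kinase Binding Assay. This europium-based binding format was applied to quantify how strongly each compound bound to the Myt1 enzyme, and the binding affinity was reported for each compound as an IC50 value.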

[3] = molecular target: T3, Myt1 kinase (CDK1 Thr14 phosphorylation in DAOY medulloblastoma cells) (Homo sapiens, UniProt Q99640); experiment: AlphaLISA assay, Myt1 kinase target engagement (phospho-CDK1 Thr14) in DAOY cells; assay type: cell-based; conditions: 4 h treatment, read-out: CDK1 Thr14 Phosphorylation EC50
T3 construct: pCDK1 Thr14 AlphaLISA read-out
T3 sequence (Q99640 1-499): T2 sequence (Q99640 1-499)
Outline: (§3)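 Cells seeded at 10,000 (DAOY) or 20,000 (ACHN) per well, treated 24 h later for 4 h with compound at 7–5000 nM. Lysates analysed by AlphaLISA SureFire Ultra phospho-CDK1 (Thr14) with donor/acceptor beads; EC50 from dose-response curves.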

[4] = molecular target: T4, recombinant human Wee1A kinase (Homo sapiens, UniProt P30291); experiment: Wee1A kinase binding assay (LanthaScreen Eu time-resolved FRET); conditions: 30 nM tracer 178, 5 nM Wee1A kinase, 2 nM Eu-labeled antibody; 60 minutes at room temperature; read-out: Wee1A kinase Binding IC50
T4 construct: full length Wee1 kinase was expressed by baculovirus in insect cells; purchased Invitrogen PV3817; host or cells: insect cells (baculovirus)
Outline: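 Full-length, baculovirus-expressed GST-tagged Wee1A (5 nM) was mixed with 2 nM Eu-anti-GST antibody, 30 nM kinase tracer 178 and compound (1% DMSO). Buffer was 50 mM HEPES pH 7.5, 10 mM MgCl2, 1 mM EGTA, 0.01% Brij-35, incubated 60 min at room temperature. TR-FRET 665/615 nm emission ratios from duplicates were curve-fitted.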

DAOY cells = experiment: Cell Titer Glo viability assay, DAOY cells; assay type: cell-based; conditions: Homo sapiens, 144 h, absolute EC50
Experimental: as §1, §2

[5] = molecular target: T5, Myt1 kinase (CDK1 Thr14 phosphorylation in ACHN renal cell carcinoma cells) (Homo sapiens, UniProt Q99640); experiment: AlphaLISA assay, Myt1 kinase target engagement (phospho-CDK1 Thr14) in ACHN cells; assay type: cell-based; conditions: ACHN cells (marked *); 4 h treatment
T5 construct: pCDK1 Thr14 AlphaLISA read-out
T5 sequence (Q99640 1-499): T2 sequence (Q99640 1-499)
Outline: as §3

T4 sequence (P30291 whole entry): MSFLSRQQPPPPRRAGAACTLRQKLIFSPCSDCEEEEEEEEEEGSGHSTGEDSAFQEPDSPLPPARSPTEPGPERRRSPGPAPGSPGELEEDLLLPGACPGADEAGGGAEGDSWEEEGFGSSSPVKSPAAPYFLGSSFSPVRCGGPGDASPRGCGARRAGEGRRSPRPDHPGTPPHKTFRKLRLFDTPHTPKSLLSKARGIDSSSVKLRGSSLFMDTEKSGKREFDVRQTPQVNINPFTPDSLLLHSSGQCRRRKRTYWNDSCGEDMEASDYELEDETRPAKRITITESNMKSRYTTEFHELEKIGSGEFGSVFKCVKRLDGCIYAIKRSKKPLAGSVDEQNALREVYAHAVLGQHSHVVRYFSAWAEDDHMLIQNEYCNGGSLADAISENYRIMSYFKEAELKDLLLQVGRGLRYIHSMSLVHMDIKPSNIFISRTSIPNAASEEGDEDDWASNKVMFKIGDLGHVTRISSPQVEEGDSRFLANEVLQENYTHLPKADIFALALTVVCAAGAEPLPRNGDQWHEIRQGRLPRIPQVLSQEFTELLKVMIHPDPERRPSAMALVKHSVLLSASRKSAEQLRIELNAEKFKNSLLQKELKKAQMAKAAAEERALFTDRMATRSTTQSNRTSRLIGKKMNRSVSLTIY
T1 sequence (P30291 whole entry): as above

Row | Compound | EC50 [1] [nM] | EC50 (A427 cells) [nM] | EC50 (ACHN cells) [nM] | IC50 [2] [nM] | EC50 [3] [nM] | IC50 [4] [nM] | EC50 (DAOY cells) [nM] | EC50 [5] [nM]
1 | C=CCn1c(=O)c2cnc(Nc3ccc4c(cnn4C)c3)nc2n1-c1cccc(OC2CCN(C)CC2)n1 [Compound 109, 2-allyl-6-(1-methyl-1H-indazol-5-ylamino)-1-[6-(1-methyl-4-piperidyloxy)-2-pyridyl]-1,2-dihydro-3H-1,2,5,7-tetraazainden-3-one] | < 100 | ≤ 100 | ≤ 100 | < 20 | < 200 | < 10 | ≤ 100 | 
2 | C=CCn1c(=O)c2cnc(Nc3cnn(C)c3)nc2n1-c1cccc(OC2CCN(C)CC2)n1 [Compound 137, 2-allyl-1-[6-(1-methyl-4-piperidyloxy)-2-pyridyl]-6-(1-methyl-4-pyrazolylamino)-1,2-dihydro-3H-1,2,5,7-tetraazainden-3-one] | < 100 | ≤ 100 | ≤ 100 | 20 to 100 |  | < 10 |  | 
3 | C=CCn1c(=O)c2cnc(Nc3ccc(Cl)cc3)nc2n1-c1cccc(OC2CCN(C)CC2)n1 [Compound 142, 2-allyl-6-((4-chlorophenyl)amino)-1-(6-((1-methylpiperidin-4-yl)oxy)pyridin-2-yl)-1,2-dihydro-3H-pyrazolo[3,4-d]pyrimidin-3-one] | < 100 | 100 to 500 | ≤ 100 | < 20 | 200 to 500 | < 10 | 100 to 500 | 
4 | C=CCn1c(=O)c2cnc(Nc3cc(C)cc(F)c3)nc2n1-c1cccc(NC2CCN(C)CC2)n1 [Compound 161, 2-allyl-6-(3-fluoro-5-toluidino)-1-[6-(1-methyl-4-piperidylamino)-2-pyridyl]-1,2-dihydro-3H-1,2,5,7-tetraazainden-3-one] | < 100 | 100 to 500 | ≤ 100 | 100 to 500 |  | < 10 |  | 
5 | C=CCn1c(=O)c2cnc(Nc3ccc4c(ccn4C)c3)nc2n1-c1cccc(OC2CCN(C)CC2)n1 [Compound 186, 2-allyl-6-((1-methyl-1H-indol-5-yl)amino)-1-(6-((1-methylpiperidin-4-yl)oxy)pyridin-2-yl)-1,2-dihydro-3H-pyrazolo[3,4-d]pyrimidin-3-one] | < 100 |  | ≤ 100 | 20 to 100 |  | < 10 | ≤ 100 | 200 to 500
6 | C=CCn1c(=O)c2cnc(Nc3ccc4c(c3)ncn4C)nc2n1-c1cccc(OC2CCN(C)CC2)n1 [Compound 211, 2-allyl-6-(1-methyl-1H-1,3-benzimidazol-5-ylamino)-1-[6-(1-methyl-4-piperidyloxy)-2-pyridyl]-1,2-dihydro-3H-1,2,5,7-tetraazainden-3-one] | < 100 | ≤ 100 | ≤ 100 | 20 to 100 | < 200 | < 10 | ≤ 100 | 
7 | C=CCn1c(=O)c2cnc(Nc3ccc(OCCF)cc3)nc2n1-c1cccc(OC2CCNCC2)n1 [Compound 233, 2-allyl-6-((4-(2-fluoroethoxy)phenyl)amino)-1-(6-(piperidin-4-yloxy)pyridin-2-yl)-1,2-dihydro-3H-pyrazolo[3,4-d]pyrimidin-3-one] | < 100 | ≤ 100 | ≤ 100 | 20 to 100 | 200 to 500 | < 10 | ≤ 100 | 
8 | C=CCn1c(=O)c2cnc(Nc3ccc(OCCF)cc3)nc2n1-c1cccc(OC2CCN(C)CC2)n1 [Compound 234, 2-allyl-6-((4-(2-fluoroethoxy)phenyl)amino)-1-(6-((1-methylpiperidin-4-yl)oxy)pyridin-2-yl)-1,2-dihydro-3H-pyrazolo[3,4-d]pyrimidin-3-one] | < 100 | ≤ 100 | ≤ 100 | 20 to 100 | < 200 | < 10 | ≤ 100 | 
9 | C=CCn1c(=O)c2cnc(Nc3ccc(OCC(F)(F)F)cc3)nc2n1-c1cccc(OC2CCN(C)CC2)n1 [Compound 291, 2-allyl-1-[6-(1-methyl-4-piperidyloxy)-2-pyridyl]-6-[p-(2,2,2-trifluoroethoxy)phenylamino]-1,2-dihydro-3H-1,2,5,7-tetraazainden-3-one] | < 100 | ≤ 100 | ≤ 100 | 20 to 100 | 200 to 500 | < 10 | ≤ 100 | 
10 | C=CCn1c(=O)c2cnc(Nc3ccc4ccoc4c3)nc2n1-c1cccc(OC2CCN(C)CC2)n1 [Compound 308, 2-allyl-6-(1-benzofuran-6-ylamino)-1-[6-(1-methyl-4-piperidyloxy)-2-pyridyl]-1,2-dihydro-3H-1,2,5,7-tetraazainden-3-one] | < 100 |  | ≤ 100 | < 20 | < 200 | < 10 | ≤ 100 | 
11 | C=CCn1c(=O)c2cnc(Nc3ccc4occc4c3)nc2n1-c1cccc(OC2CCN(C)CC2)n1 [Compound 309, 2-allyl-6-(1-benzofuran-5-ylamino)-1-[6-(1-methyl-4-piperidyloxy)-2-pyridyl]-1,2-dihydro-3H-1,2,5,7-tetraazainden-3-one] | < 100 |  | ≤ 100 | < 20 | < 200 | < 10 | ≤ 100 | 
12 | C=CCn1c(=O)c2cnc(Nc3ccc4nc(C)oc4c3)nc2n1-c1cccc(OC2CCN(C)CC2)n1 [Compound 311, 2-allyl-6-(2-methyl-1,3-benzoxazol-6-ylamino)-1-[6-(1-methyl-4-piperidyloxy)-2-pyridyl]-1,2-dihydro-3H-1,2,5,7-tetraazainden-3-one] | < 100 |  | ≤ 100 | 20 to 100 | < 200 | < 10 | ≤ 100 | 
13 | C=CCn1c(=O)c2cnc(Nc3ccc4sncc4c3)nc2n1-c1cccc(OC2CCN(C)CC2)n1 [Compound 320, 2-allyl-6-(1,2-benzisothiazol-5-ylamino)-1-[6-(1-methyl-4-piperidyloxy)-2-pyridyl]-1,2-dihydro-3H-1,2,5,7-tetraazainden-3-one] | < 100 |  | ≤ 100 | < 20 | 200 to 500 | < 10 | ≤ 100 | 
14 | C=CCn1c(=O)c2cnc(Nc3ccc4cccnc4c3)nc2n1-c1cccc(OC2CCN(C)CC2)n1 [Compound 335, 2-allyl-1-[6-(1-methyl-4-piperidyloxy)-2-pyridyl]-6-(7-quinolylamino)-1,2-dihydro-3H-1,2,5,7-tetraazainden-3-one] | < 100 |  | ≤ 100 | < 20 | 200 to 500 | < 10 | ≤ 100 | 
